Measured values reported in US9675606B2, “2-amino-3-(imidazol-2-yl)-pyridin-4-one derivatives and their use as VEGF receptor kinase inhibitors” (SANOFI, priority 2011, dated 2017).
Read-outs that look alike come from different tables or passages of the source.

How the values were obtained:
[1] = target: T1, VEGFR-3 (Homo sapiens, UniProt P35916); test: Ex vivo assay: VEGFR-3 autophosphorylation in HEK cells incubated with plasma of mice dosed p.o.; design: species or system male Balb/c mice; conditions: HEK293, mouse, transfected HEK cells incubated with plasma (10%), read-out: Ex vivo inhibition (%) At the time
T1 construct: expressed in transfected cells; host or cells: HEK293T cells, transient transfection with Fugene-6
Experimental: Protocol for administration of the products to the mice:
The products are prepared in a mortar with 0.5% Tween 80 and 0.6% methylcellulose qs final volume. The suspensions are administered by gavage (10 ml/kg) to male Balb/c mice 8 to 15 weeks old. Three hours or 6 hours after single oral administrations of 30 mg/kg, animals were anaesthetized with pentobarbital and blood samples (400 μL) were collected from cava vein and transferred into glass tubes containing lithium heparin. After centrifugation (1500-2000 g for 10 minutes), plasma samples were frozen at a temperature close to −20° C. until analysis.
In order to detect the ex vivo activity of the products in the plasmas, we have used the autophosphorylation assay in HEK cells described earlier. For this purpose, transfected cells were incubated with plasma (10%) instead of compounds. Results are expressed as percent of inhibition of VEGFR-3 autophosphorylation in comparison to untreated cells (maximum autophosphorylation) and to untransfected cells (background).
Results are expressed as a percentage of inhibition of VEGFR-3 auto-phosphorylation of in HEK cells, in presence of a plasma sample collected (at a time), after per os (p.o.) administration of compounds. In order to evaluate the increase of this activity for compounds of the invention, a comparison with compounds of the prior art (WO 2009/007535) and subjected to the same measurement is made in table 3.

[2] = target: T1, VEGFR-3; test: Effect of compounds on VEGFR-3 auto-phosphorylation in HEK cells (ELISA); format: cell-based; conditions: autophosphorylation of VEGFR-3-Flag overexpressed in HEK293T cells, 1 h incubation with compound
Experimental: Effect of Compounds on VEGFR-3 Auto-Phosphorylation in HEK Cells
The effects of compounds in blocking VEGFR-3 autophosphorylation were quatified by ELISA after Overexpression of VEGFR-3 in HEK cells. HEK293T cells were maintained in MEM supplemented with 10% foetal calf serum (FCS) and glutamine. The day before transfection, […] were seeded on 48 wells plates and transfection was done using Fugene-6 (Roche, Basel). Fugene-6 (18 μL) was preincubated for 5 min with 282 μl of optimem. Then 3 μg DNA corresponding VFGR-3-Flag was added and left at room temperature during 10 min before distributing 200 μl on HEK cells. After 24 h, the medium was removed and replaced by a new one without serum and incubated for 1 h with different concentrations (ranging from 3 to 1000 nM) of each compound. After additional 30 min incubation with Orthovanadate (0.4 mM), cells were washed with cold PBS supplemented by orthovanadate and then lysed with 300 μl of RIPA buffer. Lysates were then centrifuged during 10 min at 10000 g. Supernatants (75 μl) were distributed in duplicate on 96 well plate precoated with the anti-Flag and left during 1 hour at room temperature. After 3 washes with TBS buffer containing 0.5% tween 20, the anti-phospho-tyrosine conjugated to the HRP was added and incubated for 1 hour at room temperature. Wells were then washed 3 times with TBS buffer containing tween 20 (0.5%) and MgCl2 (2 mM). The reaction was stopped with 50 μl of H2SO4 (2 N) and the signal was read at Envision at 485 and 530.
The concentration-response curves were analyzed with internal software Biost@t-SPEED v2.0 using the 4-parameter logistic model according to Ratkovsky and Reedy (Ratkovsky D A., Reedy T J. Choosing near-linear parameters in the four parameters logistic model radioligands and related assays. Biometrics 1986 September 42(3):575-82.)

[3] = 3 h after single oral administration of 30 mg/kg to male Balb/c mice
[4] = 6 h after single oral administration of 30 mg/kg to male Balb/c mice

T1 sequence (P35916 25-1363, species assumed): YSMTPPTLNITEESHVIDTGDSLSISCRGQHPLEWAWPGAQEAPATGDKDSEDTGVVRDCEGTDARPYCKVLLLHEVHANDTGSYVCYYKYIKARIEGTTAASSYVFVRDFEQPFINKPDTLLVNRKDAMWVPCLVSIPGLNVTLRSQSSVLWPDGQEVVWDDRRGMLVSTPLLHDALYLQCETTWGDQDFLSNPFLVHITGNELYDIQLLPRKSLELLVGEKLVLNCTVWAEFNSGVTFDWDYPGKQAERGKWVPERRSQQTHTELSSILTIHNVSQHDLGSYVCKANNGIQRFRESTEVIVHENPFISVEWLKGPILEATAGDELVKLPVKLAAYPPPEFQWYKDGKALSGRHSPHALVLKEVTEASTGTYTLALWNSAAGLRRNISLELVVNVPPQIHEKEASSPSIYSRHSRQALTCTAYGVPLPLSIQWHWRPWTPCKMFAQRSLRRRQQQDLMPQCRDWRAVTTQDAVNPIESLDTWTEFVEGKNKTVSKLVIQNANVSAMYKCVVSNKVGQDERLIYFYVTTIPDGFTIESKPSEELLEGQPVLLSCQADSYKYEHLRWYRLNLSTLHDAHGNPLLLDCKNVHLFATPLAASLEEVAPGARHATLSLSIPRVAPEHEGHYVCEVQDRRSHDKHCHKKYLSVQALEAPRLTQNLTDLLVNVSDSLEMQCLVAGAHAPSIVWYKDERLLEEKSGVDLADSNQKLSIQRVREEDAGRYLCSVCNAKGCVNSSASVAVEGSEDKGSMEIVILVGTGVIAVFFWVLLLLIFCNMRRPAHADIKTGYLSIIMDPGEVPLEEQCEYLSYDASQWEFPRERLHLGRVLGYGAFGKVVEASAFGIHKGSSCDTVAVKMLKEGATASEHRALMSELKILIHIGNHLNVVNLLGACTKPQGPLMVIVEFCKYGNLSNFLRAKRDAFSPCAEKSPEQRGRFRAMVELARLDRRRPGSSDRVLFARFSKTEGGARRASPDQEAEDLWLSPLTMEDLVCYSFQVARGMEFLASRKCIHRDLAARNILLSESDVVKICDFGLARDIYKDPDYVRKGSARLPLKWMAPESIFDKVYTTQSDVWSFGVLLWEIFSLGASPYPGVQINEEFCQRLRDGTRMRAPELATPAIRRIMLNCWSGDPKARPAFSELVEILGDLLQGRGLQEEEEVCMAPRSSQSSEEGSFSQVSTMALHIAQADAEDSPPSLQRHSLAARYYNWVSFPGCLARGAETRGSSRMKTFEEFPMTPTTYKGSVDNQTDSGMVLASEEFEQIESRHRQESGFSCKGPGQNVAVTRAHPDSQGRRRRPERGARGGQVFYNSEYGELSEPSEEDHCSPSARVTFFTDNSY

| inhibition at 30 mg/kg [1, 3] | IC50 [2] | inhibition at 30 mg/kg [1, 4] | SMILES |
| --- | --- | --- | --- |
| 51% | 125 nM | – | CCn1c(N)c(-c2ncc[nH]2)c(=O)c2ccc(C#CC(C)(O)CO)nc21 (racemic) [Compound 3, 2-Amino-7-(3,4-dihydroxy-3-methyl-but-1-ynyl)-1-ethyl-3-(1H-imidazol-2-yl)-1H-[1,8]naphthyridin-4-one] |
| – | 85 nM | – | CCC(O)C#Cc1ccc2c(=O)c(-c3ncc[nH]3)c(N)n(CC3CC3)c2n1 (racemic) [Compound 6, 2-Amino-1-(cyclopropylmethyl)-7-(3-hydroxypent-1-yn-1-yl)-3-(H-imidazol-2-yl)-1,8-naphthyridin-4(1H)-one] |
| – | 16 nM | – | CCn1c(N)c(-c2ncc[nH]2)c(=O)c2ccc(C#CC(C)(O)c3ccccc3F)nc21 (racemic) [Compound 9, 2-Amino-1-ethyl-7-[3-(2-fluorophenyl)-3-hydroxybut-1-yn-1-yl]-3-(1H-imidazol-2-yl)-1,8-naphthyridin-4(1H)-one] |
| – | 37 nM | – | CCC(O)C#Cc1ccc2c(=O)c(-c3ncc[nH]3)c(N)n(C3CCCC3)c2n1 (racemic) [Compound 10, 2-Amino-1-cyclopentyl-7-(3-hydroxypent-1-yn-1-yl)-3-(1H-imidazol-2-yl)-1,8-naphthyridin-4(1H)-one] |
| – | 334 nM | – | CCC(O)C#Cc1ccc2c(=O)c(-c3ncc[nH]3)c(N)n(CCCOC)c2n1 (racemic) [Compound 11, 2-Amino-7-(3-hydroxypent-1-yn-1-yl)-3-(1H-imidazol-2-yl)-1-(3-methoxypropyl)-1,8-naphthyridin-4(1H)-one] |
| – | 166 nM | – | CCC(O)C#Cc1ccc2c(=O)c(-c3ncc[nH]3)c(N)n(CCOC)c2n1 (racemic) [Compound 12, 2-Amino-7-(3-hydroxypent-1-yn-1-yl)-3-(1H-imidazol-2-yl)-1-(2-methoxyethyl)-1,8-naphthyridin-4(1H)-one] |
| 48% | 119 nM | – | CCn1c(N)c(-c2ncc[nH]2)c(=O)c2ccc(C#CC(C)(O)CC)nc21 (racemic) [Compound 16, 2-Amino-1-ethyl-7-(3-hydroxy-3-methylpent-1-yn-1-yl)-3-(1H-imidazol-2-yl)-1,8-naphthyridin-4(1H)-one] |
| – | 13 nM | 37% | CCn1c(N)c(-c2ncc[nH]2)c(=O)c2ccc(C#CC(C)(O)c3ccccc3)nc21 (racemic) [Compound 17, 2-Amino-1-ethyl-7-(3-hydroxy-3-phenylbut-1-yn-1-yl)-3-(1H-imidazol-2-yl)-1,8-naphthyridin-4(1H)-one] |
| – | 36 nM | – | CCn1c(N)c(-c2ncc[nH]2)c(=O)c2ccc(C#CC(C)(O)c3cccc(F)c3)nc21 (racemic) [Compound 18, 2-Amino-1-ethyl-7-[3-(3-fluorophenyl)-3-hydroxybut-1-yn-1-yl]-3-(1H-imidazol-2-yl)-1,8-naphthyridin-4(1H)-one] |
| – | 14 nM | – | CCn1c(N)c(-c2ncc[nH]2)c(=O)c2ccc(C#CC(O)(c3ccccc3)C(F)(F)F)nc21 (racemic) [Compound 19, 2-Amino-1-ethyl-3-(1H-imidazol-2-yl)-7-(4,4,4-trifluoro-3-hydroxy-3-phenylbut-1-yn-1-yl)-1,8-naphthyridin-4(1H)-one] |
| – | 24 nM | – | CCn1c(N)c(-c2ncc[nH]2)c(=O)c2ccc(C#CC(C)(O)c3cccs3)nc21 (racemic) [Compound 21, 2-Amino-1-ethyl-7-[3-hydroxy-3-(thiophen-2-yl)but-1-yn-1-yl]-3-(1H-imidazol-2-yl)-1,8-naphthyridin-4(1H)-one] |
| – | 38 nM | 26% | CCn1c(N)c(-c2ncc[nH]2)c(=O)c2ccc(C#CC(C)O)nc21 (racemic) [Compound 22, 2-Amino-1-ethyl-7-(3-hydroxybut-1-yn-1-yl)-3-(1H-imidazol-2-yl)-1,8-naphthyridin-4(1H)-one] |
| – | 19 nM | – | CCC(O)C#Cc1ccc2c(=O)c(-c3ncc[nH]3)c(N)n(CC)c2n1 (racemic) [Compound 23, 2-Amino-1-ethyl-7-(3-hydroxypent-1-yn-1-yl)-3-(1H-imidazol-2-yl)-1,8-naphthyridin-4(1H)-one] |
| – | 85 nM | – | CCCC(O)C#Cc1ccc2c(=O)c(-c3ncc[nH]3)c(N)n(CC)c2n1 (racemic) [Compound 24, 2-Amino-1-ethyl-7-(3-hydroxyhex-1-yn-1-yl)-3-(1H-imidazol-2-yl)-1,8-naphthyridin-4(1H)-one] |
| – | 303 nM | – | CCn1c(N)c(-c2ncc[nH]2)c(=O)c2ccc(C#CC(O)C(C)C)nc21 (racemic) [Compound 25, 2-Amino-1-ethyl-7-(3-hydroxy-4-methylpent-1-yn-1-yl)-3-(1H-imidazol-2-yl)-1,8-naphthyridin-4(1H)-one] |
| – | 120 nM | – | CCn1c(N)c(-c2ncc[nH]2)c(=O)c2ccc(C#CC(O)c3ccccc3)nc21 (racemic) [Compound 26, 2-Amino-1-ethyl-7-(3-hydroxy-3-phenylprop-1-yn-1-yl)-3-(1H-imidazol-2-yl)-1,8-naphthyridin-4(1H)-one] |
| – | 25 nM | 83% | CCn1c(N)c(-c2ncc[nH]2)c(=O)c2ccc(C#C[C@@](C)(O)COC)nc21 [Compound 1, 2-Amino-1-ethyl-7-((3R)-3-hydroxy-4-methoxy-3-methyl-but-1-ynyl)-3-(1H-imidazol-2-yl)-1H-[1,8]naphthyridin-4-one] |
| – | 18 nM | – | CCCn1c(N)c(-c2ncc[nH]2)c(=O)c2ccc(C#C[C@@](C)(O)COC)nc21 [Compound 2, 2-Amino-1-propyl-7-((3R)-3-hydroxy-4-methoxy-3-methyl-but-1-ynyl)-3-(1H-imidazol-2-yl)-1H-[1,8]naphthyridin-4-one] |
| – | 19 nM | – | CCn1c(N)c(-c2ncc[nH]2)c(=O)c2ccc(C#C[C@@](C)(O)COC)cc21 [Compound 7, 2-Amino-1-ethyl-7-[(3R)-3-hydroxy-4-methoxy-3-methylbut-1-yn-1-yl]-3-(1H-imidazol-2-yl)quinolin-4(1H)-one] |
| – | 73 nM | – | CCn1c(N)c(-c2ncc[nH]2)c(=O)c2ccc(-c3ccc(O)c(Cl)c3)nc21 [Compound 8, 2-Amino-7-(3-chloro-4-hydroxyphenyl)-1-ethyl-3-(1H-imidazol-2-yl)-1,8-naphthyridin-4(1H)-one] |
| – | 200 nM | – | CCn1c(N)c(-c2ncc[nH]2)c(=O)c2ccc(C#CC3(O)CCCC3)nc21 [Compound 14, 2-Amino-1-ethyl-7-[(1-hydroxycyclopentyl)ethynyl]-3-(1H-imidazol-2-yl)-1,8-naphthyridin-4(1H)-one] |
| – | 27 nM | – | CCn1c(N)c(-c2ncc[nH]2)c(=O)c2ccc(C#CC(C)(C)O)nc21 [Compound 15, 2-Amino-1-ethyl-7-(3-hydroxy-3-methylbut-1-yn-1-yl)-3-(1H-imidazol-2-yl)-1,8-naphthyridin-4(1H)-one] |
| – | 47 nM | – | CCn1c(N)c(-c2ncc[nH]2)c(=O)c2ccc(C#C[C@@](C)(O)CO)nc21 [Compound 27, 2-Amino-7-((3R)3,4-dihydroxy-3-methyl-but-1-ynyl)-1-ethyl-3-(1H-imidazol-2-yl)-1,8-naphthyridin-4(1H)-one] |
| – | 153 nM | – | CCn1c(N)c(-c2ncc[nH]2)c(=O)c2ccc(C#C[C@](C)(O)CO)nc21 [Compound 28, 2-Amino-7-((3S)3,4-dihydroxy-3-methyl-but-1-ynyl)-1-ethyl-3-(1H-imidazol-2-yl)-1,8-naphthyridin-4(1H)-one] |
| – | 145 nM | – | CCn1c(N)c(-c2ncc[nH]2)c(=O)c2ccc(C#C[C@](C)(O)COC)nc21 [Compound 29, 2-Amino-1-ethyl-7-((3S)-3-hydroxy-4-methoxy-3-methyl-but-1-ynyl)-3-(1H-imidazol-2-yl)-1,8-naphthyridin-4(1H)-one] |
